The record followed here is US7972815B2, “Method of producing sugar chain using human G4 polypeptide” (Kyowa Hakko Kirin Co., Ltd., priority 1999, dated 2011).

Common to all, as to type: biochemical
Test [1] addresses T1, β1,3-N-acetylglucosaminyl transferase (G7) (Homo sapiens, UniProt Q9C0J1).
T1 construct: made in house; host or cells: Sf21 insect cells infected with recombinant baculovirus from pVL1393-F2G7
The test can be described thus: Substrate specificity of G7 with pyridylaminated oligosaccharides. The conditions noted are these: 16 hours; for Relative activity (%): pyridylaminated substrate, 37° C., activity for LNnT defined as 100%. The method, then:
(§1) The method shown in Example 8 was used as the activity measuring method. Specifically, after the reaction at 37° C. for 14.5 hours in 30 μl of an assay solution [200 mmol/l of MOPS (pH 7.5), 20 mmol/l of UDP-GlcNAc (SIGMA), 20 mmol/l of MnCl2, 50 μmol/l of pyridylaminated sugar chain substrate and 15 μl of the above eluate], products were detected by HPLC. As substrates, LNnT, lacto-N-tetraose (Galβ1-3GlcNAcβ1-3Galβ1-4Glc, hereinafter referred to as “LNT”), lacto-N-fucopentaose II (Galβ1-3(Fucα1-4)GlcNAcβ1-3Galβ1-4Glc, hereinafter referred to as “LNFP-II”), lacto-N-fucopentaose III (Galβ1-4(Fucα1-3)GlcNAcβ1-3Galβ1-4Glc, hereinafter referred to as “LNFP-III”), lacto-N-fucopentaose V (Galβ1-3GlcNAcβ1-3Galβ1-4(Fucα1-3)Glc, hereinafter referred to as “LNFP-V”) and lacto-N-difucohexaose II (Galβ1-3(Fucα1-4)GlcNAcβ1-3Galβ1-4(Fucα1-3)Glc, hereinafter referred to as “LNDFH-II”) (all manufactured by Oxford Glycosystems) were used after fluorescently labeling them with aminopyridine. Fluorescence labeling of these substrates were carried out in accordance with the usual method [Agric. Biol. Chem., 54, 2169 (1990)].
(§2) For each substrate, the reaction was carried using the assay solution with or without UDP-GlcNAc (sugar donor), and then HPLC was carried out and peaks appeared only in the assay solution containing UDP-GlcNAc were defined as products.
(§3) The assay solution after completion of the reaction was treated at 100° C. for 5 minutes and then centrifuged at 10,000×g for 5 minutes, and a portion (5 μl) of the thus obtained supernatant was applied to HPLC.
(§4) The HPLC was carried out by using TSK-gel ODS-80Ts column (4.6×300 mm; Tosoh); 0.02 mol/l ammonium acetate buffer (pH 4.0) was used as the eluate at an elution temperature of 50° C. and at a flow rate of 0.5 ml/min.
(§5) Products were detected by using a fluorescence spectrum photometer FP-920 (JASCO Corporation) (excitation wavelength 320 nm, radiation wavelength 400 nm).
Examination of the substrate specificity of a β1,3-N-acetylglucosaminyl transferase (G7) was carried out using the FLAG peptide-fused G7 polypeptide purified in Example 17.
Substrate specificity of the FLAG peptide-fused G7 polypeptide was examined by the method shown in Example 11(1). The reaction was carried out at 37° C. for 16 hours.

Test [2] deals with T2, β1,3-N-acetylglucosaminyl transferase (G3) (Homo sapiens, UniProt Q9NY97).
T2 construct: made in house; host or cells: Sf21 insect cells infected with recombinant baculovirus from pVL1393-F2G3
T2 sequence (Q9NY97 31-397): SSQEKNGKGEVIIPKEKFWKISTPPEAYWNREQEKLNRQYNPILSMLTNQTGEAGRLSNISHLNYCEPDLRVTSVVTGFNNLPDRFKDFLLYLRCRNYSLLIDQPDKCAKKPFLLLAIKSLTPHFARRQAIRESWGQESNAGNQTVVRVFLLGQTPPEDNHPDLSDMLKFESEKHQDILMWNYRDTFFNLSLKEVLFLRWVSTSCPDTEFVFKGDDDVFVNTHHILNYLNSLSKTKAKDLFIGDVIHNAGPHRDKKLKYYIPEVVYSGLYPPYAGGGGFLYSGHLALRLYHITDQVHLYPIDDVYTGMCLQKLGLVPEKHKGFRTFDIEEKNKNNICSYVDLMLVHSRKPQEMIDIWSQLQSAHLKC
The test can be described thus: Substrate specificity of G3 with pyridylaminated oligosaccharides. The conditions noted are these: 2 hours; for Relative activity (%): pyridylaminated substrate, 37° C., activity on LNnT defined as 100%. The method, then:
as §1, §2, §3, §4, §5
Substrate specificity of a β1,3-N-acetylglucosaminyl transferase (G3) was examined using the FLAG peptide-fused G3 polypeptide purified in Example 14.
Substrate specificity of the FLAG peptide-fused G3 polypeptide was examined by the method shown in Example 11(1). The reaction was carried out at 37° C. for 2 hours.

Test [3] addresses T1, β1,3-N-acetylglucosaminyl transferase (G7). In words: Substrate specificity of G7 with unlabeled oligosaccharides. Conditions: 15.5 hours; for Relative activity (%) G7: unlabeled substrate, 37° C., activity for LNnT defined as 100%. The method, then: (§6) The reaction using the glycosyltransferase was carried out as follows. The reaction was carried out at 37° C. for 16 hours in 40 μl of an assay solution [50 mmol/l MOPS (pH 7.5), 5 mmol/l UDP-GlcNAc (SIGMA), 5 mmol/l MnCl2, […] and 10 μl of the above eluate]. Next, the reaction solution was treated at 100° C. for 5 minutes and then centrifuged at 10,000×g for 20 minutes to obtain the supernatant, and a portion thereof was analyzed using HPAE/PAD (High Performance Anion Pulsed Amperometoric Detection; manufactured by DIONEX). The specific method was carried out in the usual way [Anal. Biochem., 189, 151 (1990), J. Biol. Chem., 273, 433 (1998)].
(§7) As substrates, the following unlabeled oligosaccharides were used: lactose (Galβ1-4Glc), N-acetyllactosamine (Galβ1-4GlcNAc, hereinafter referred to as “LacNAc” in some cases), LNnT, LNT and lacto-N-neohexaose (Galβ1-4GlcNACβ1-3Galβ1-4GlcNAcβ1-3Galβ1-4Glc, hereinafter referred to as “LNnH”).
as §2
(§8) In identifying the product, coincidence of its elution time with that of a standard sugar chain was used as the index. As the standard sugar chains, GlcNAcβ1-3Galβ1-4Glc, GlcNAcβ1-3Galβ1-4GlcNAc and GlcNAcβ1-3Galβ1-4GlcNAcβ1-3Galβ1-4Glc were used.
Substrate specificity of the FLAG peptide-fused G7 polypeptide was examined using the method shown in Example 11(2). The enzyme reaction was carried out at 37° C. for 15.5 hours.

The target of test [4] is T2, β1,3-N-acetylglucosaminyl transferase (G3). In words: Substrate specificity of G3 with unlabeled oligosaccharides. The conditions noted are these: 2 hours; for Relative activity (%) G3: unlabeled substrate, 37° C., activity for LNnT defined as 100%. The method, then: as §6, §7, §2, §8
Substrate specificity of the FLAG peptide-fused G3 polypeptide was examined by the method shown in Example 11(2). The enzyme reaction was carried out at 37° C. for 2 hours.

The mark [5] stands for this setting: pyridylaminated LNnT as substrate.

T1 sequence (Q9C0J1 56-378): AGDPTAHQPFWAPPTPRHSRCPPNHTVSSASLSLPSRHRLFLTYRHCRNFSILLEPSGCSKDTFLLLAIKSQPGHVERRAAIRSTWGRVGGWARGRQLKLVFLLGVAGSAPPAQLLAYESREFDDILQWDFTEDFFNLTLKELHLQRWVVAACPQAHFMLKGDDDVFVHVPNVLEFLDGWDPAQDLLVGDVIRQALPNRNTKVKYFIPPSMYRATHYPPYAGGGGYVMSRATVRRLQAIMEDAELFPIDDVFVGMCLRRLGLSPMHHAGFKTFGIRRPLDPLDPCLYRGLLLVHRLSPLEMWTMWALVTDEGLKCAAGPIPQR

Regarding `CC(=O)N[C@H]1[C@H](O[C@H]2[C@@H](O)[C@@H](CO)O[C@@H](O[C@H]3[C@H](O)[C@@H](O)C(O)O[C@@H]3CO)[C@@H]2O)O[C@H](CO)[C@@H](O)[C@@H]1O[C@@H]1O[C@H](CO)[C@H](O)[C@H](O)[C@H]1O` (stereo partly drawn) [LNT, lacto-N-tetraose], the “Relative activity (%)” value in test [1] was 7.6%; in test [2] it was 3.7%. Besides, the “Relative activity (%) G7” value in test [3] worked out at 0%. Besides, in test [4], the “Relative activity (%) G3” value is 27%.
Regarding `CC(=O)N[C@H]1[C@H](O[C@H]2[C@@H](O)[C@@H](CO)O[C@@H](O[C@H]3[C@H](O)[C@@H](O)C(O)O[C@@H]3CO)[C@@H]2O)O[C@H](CO)[C@@H](O[C@@H]2O[C@H](CO)[C@H](O)[C@H](O)[C@H]2O)[C@@H]1O` (mixture of isomers) [LNnT, lacto-N-neotetraose], the “conversion efficiency of the substrate into the product” value in test [1] (setting [5]) is recorded as 3.76%; in test [2] (setting [5]) it was 82.5%; in test [3] (unlabeled LNnT as substrate), 3.07%. The “Relative activity (%)” value in test [1] and in test [2] was 100% throughout. In addition, the “Relative activity (%) G7” value in test [3] amounted to 100%. In addition, the “conversion ratio of a substrate into the product” value in test [4] (unlabeled LNnT as substrate) is reported as 4.6%. Besides, the “Relative activity (%) G3” value in test [4] is on record as 100%.
